Test results as given in ChEMBL document CHEMBL4811228, “Design, Synthesis, and Activity Evaluation of Novel Acyclic Nucleosides as Potential Anticancer Agents In Vitro and In Vivo” (J Med Chem, 2021).
The source made the active and inactive calls. No cut-off for these calls is given here.

What was measured:
SW480 [1] = test: Induction of apoptosis in human SW480 cells assessed as necrotic cells at 2 uM incubated for 48 hrs by Annexin V-FITC/PI staining based flow cytometry (reference value: 2.9%); type: functional
SW480 [2] = test: Induction of apoptosis in human SW480 cells assessed as increase in cleaved PARP protein expression at 2 to 16 uM incubated for 48 hrs by western blot analysis; type: functional, cell-based; details: dose 2-16 µM
SW480 [3] = test: Induction of apoptosis in human SW480 cells assessed as early apoptotic cells at 32 uM incubated for 48 hrs by Annexin V-FITC/PI staining based flow cytometry (reference value: 1.87%); type: functional
SW480 [4] = test: Induction of apoptosis in human SW480 cells assessed as viable cells at 2 uM incubated for 48 hrs by Annexin V-FITC/PI staining based flow cytometry (reference value: 90.56%); type: functional; details: read-out: Activity
SW480 [5] = test: Induction of apoptosis in human SW480 cells assessed as early apoptotic cells at 2 uM incubated for 48 hrs by Annexin V-FITC/PI staining based flow cytometry (reference value: 1.87%); type: functional
SW480 [6] = test: Induction of apoptosis in human SW480 cells assessed as necrotic cells at 8 uM incubated for 48 hrs by Annexin V-FITC/PI staining based flow cytometry (reference value: 2.9%); type: functional
SW480 [7] = test: Induction of apoptosis in human SW480 cells assessed as early apoptotic cells at 16 uM incubated for 48 hrs by Annexin V-FITC/PI staining based flow cytometry (reference value: 1.87%); type: functional
SW480 [8] = test: Antitumor activity against human SW480 cells xenografted in ip dosed BALB/c mouse assessed as reduction in tumor volume administered every 2 days for 12 days; type: functional, organism-based; details: dose 25-50 mg/kg, time 12.0 day
SW480 [9] = test: Induction of apoptosis in human SW480 cells at 4 to 8 uM pretreated with pan-caspase inhibitor, Q-VD-OPh followed by incubation with compound for 48 hrs by Annexin V-FITC/PI staining based flow cytometry; type: functional, cell-based; details: dose 4-8 µM
[10] = Acute toxicity in ip dosed BALB/c mouse administered per 4 hrs for 4 times and measured everyday for 14 days; type: organism-based; details: in vivo, time 14 day
SW480 [11] = test: Inhibition of colony formation in human SW480 cells at >=16 uM incubated for 48 hrs followed by culture medium replenishment for every 72 hrs and measured after 14 days by crystal violet staining based analysis; type: functional; details: dose microM >=16; time 14 day
[12] = Half life in mouse liver microsomes at 0.1 uM preincubated for 10 mins followed by NADPH addition and measured up to 60 mins by LC-MS/MS analysis; type: ADME, Microsome; details: time 70 min
SW480 [13] = test: Induction of mitochondrial membrane potential loss in human SW480 cells assessed as cells with low MMP emitting green fluorescence at 4 uM incubated for 24 hrs by JC-1 staining based flow cytometry (reference value: 17.96%); type: functional
SW480 [14] = test: Induction of apoptosis in human SW480 cells assessed as late apoptotic cells at 8 uM incubated for 48 hrs by Annexin V-FITC/PI staining based flow cytometry (reference value: 4.67%); type: functional
SW480 [15] = test: Induction of apoptosis in human SW480 cells assessed as early apoptotic cells at 4 uM incubated for 48 hrs by Annexin V-FITC/PI staining based flow cytometry (reference value: 1.87%); type: functional
[16] = Toxicity in BALB/c mouse xenografted with human SW480 cells assessed as decrease in body weight at 25 to 50 mg/kg, ip administered every 2 days for 12 days; type: organism-based; details: in vivo, 288 h, dose 25-50 mg/kg, time 12 day
SW480 [17] = test: Induction of apoptosis in human SW480 cells assessed as late apoptotic cells at 16 uM incubated for 48 hrs by Annexin V-FITC/PI staining based flow cytometry (reference value: 4.67%); type: functional
HCT-116 = test: Potency index, ratio of 5-FU IC50 to test compound IC50 for antiproliferative activity against human HCT-116 cells; type: functional
SW480 [18] = test: Induction of apoptosis in human SW480 cells assessed as viable cells at 32 uM incubated for 48 hrs by Annexin V-FITC/PI staining based flow cytometry (reference value: 90.56%); type: functional; details: read-out: Activity
SW480 [19] = test: Induction of apoptosis in human SW480 cells assessed as viable cells at 8 uM incubated for 48 hrs by Annexin V-FITC/PI staining based flow cytometry (reference value: 90.56%); type: functional; details: read-out: Activity
SW480 [20] = test: Induction of apoptosis in human SW480 cells assessed as necrotic cells at 4 uM incubated for 48 hrs by Annexin V-FITC/PI staining based flow cytometry (reference value: 2.9%); type: functional

Question: With `CCCCCCCCCC(CCO)n1cnc2c(Cl)ncnc21` (racemic) as the compound, how does the Activity (SW480 [1]) read?
Answer: 9.2%

Question: What about the Activity (SW480 [2]) of the same compound?
Answer: Active

Question: What about the Activity (SW480 [3]) of the same compound?
Answer: 55.55%

Question: What about the viability at 2 µM (SW480 [4]) of the same compound?
Answer: 73.9%

Question: What about the Activity (SW480 [5]) of the same compound?
Answer: 5.2%

Question: And the Activity (SW480 [6])?
Answer: 16.97%

Question: And the Activity (SW480 [7])?
Answer: 24.5%

Question: What about the Activity (SW480 [8]) of the same compound?
Answer: Dose-Dependent Effect

Question: What about the Activity (SW480 [9]) of the same compound?
Answer: Active

Question: And the LD50 at 336 h [10]?
Answer: 220 mg/kg

Question: What about the “inhibition (INH)” value (SW480 [11]) of the same compound?
Answer: 100%

Question: What about the half-life at 0.1 µM [12] of the same compound?
Answer: 1 min

Question: What about the Activity (SW480 [13]) of the same compound?
Answer: 33.02%

Question: And the Activity (SW480 [14])?
Answer: 15.47%

Question: What about the Activity (SW480 [15]) of the same compound?
Answer: 11.67%

Question: What about the Activity [16] of the same compound?
Answer: Non-Toxic

Question: What about the Activity (SW480 [17]) of the same compound?
Answer: 20.5%

Question: What about the “Ratio IC50” value (HCT-116) of the same compound?
Answer: 10

Question: What about the viability at 32 µM (SW480 [18]) of the same compound?
Answer: 26.8%

Question: What about the viability at 8 µM (SW480 [19]) of the same compound?
Answer: 56.5%

Question: And the Activity (SW480 [20])?
Answer: 7.76%
